# Results taken from patent US11235000B2, “Calcium peroxides nanoparticles as adjuvant therapy” (UNIVERSITY OF ULSTER, priority 2017, dated 2022).
# Experiments:
# [1] = test system: human BxPC-3 pancreatic cancer cells; experiment: In vitro PDT of hypoxic cells, MTT cell viability; assay type: cell-based; conditions: PDT treatment alone (RB 1 μM + 532 nm LED 30 sec)
# Protocol: Having determined the ability of the CaO2 NPs to improve the light induced ROS generation of Rose Bengal in a simulated hypoxic environment, the next step was to determine if this improved ROS generation would also result in increased Rose Bengal mediated PDT killing of human BxPC-3 pancreatic cancer cells.
# BxPc3 cells were seeded in a 96 well plate at a density of 5×10^4 cells per well. The cells were cultured in an anaerobic cabinet (O2/CO2/N2, 0.1:5:94.9 v/v/v) for 3 hours to generate a hypoxic environment and then spiked with RB (1 μM) and incubated for a further 3 hours under anaerobic conditions. This concentration of RB is much lower than normally used in PDT cell-based studies (˜5 μM) and was chosen to enable a moderate PDT effect in the absence of CaO2 NPs so that any beneficial effect provided by the NPs could be determined (Chan et al., Tissue engineering, 13(1): 73-85, 2007). The cells were then incubated with an ethanol: PBS (50:50) solution of the NPs (50 μM) for 5 min before being exposed to light from a 532 nm emitting LED for 30 sec. The NP solution was then removed, the cells washed with fresh PBS and incubated in fresh media under normoxic conditions for a further 21 hours before cell viability was determined using a MTT assay. […]
# [2] = test system: Mia-PaCa 2 xenograft tumours; experiment: PDT efficacy in vivo, tumour volume; parameters: species or system SCID mice; conditions: PDT alone (intratumoural Rose Bengal 100 μL, 0.1 mg/mL + white light 3 min); 5 days after treatment
# Protocol: All animals employed in this study were treated humanely and in accordance with licenced procedures under the UK Animals (Scientific Procedures) Act 1986. Mia-PaCa 2 xenograft tumours were established as described above. Once the tumours had reached an average volume of 254±17 mm^3 the mice were randomly separated into 4 groups (n=5). Group 1 involved untreated animals, group 2 the PDT only group, Group 3 the 1-CaO2 NPs only group and group 4 the PDT+1-CaO2 NPs group. For group 2, mice received an intratumoural injection (100 μL) of Rose Bengal (0.1 mg/mL) in a PBS solvent and the tumour was then exposed to a LED emitting white light for 3 min (0.05 J/cm^2). Group 3 received a tail vein injection (100 μL) of 1-CaO2 NPs in a PBS vehicle (2 mg/mL) while group 4 also received a tail vein injection (100 μL) of 1-CaO2 NPs in a PBS vehicle (2 mg/mL) in addition to an intratumoural injection (100 μL) of Rose Bengal (0.1 mg/mL) and light exposure as described for group 2. The tumour volume was measured daily over the course of 6 days using callipers.
structure (smiles),measurement,setting,value
O=C([O-])c1c(Cl)c(Cl)c(Cl)c(Cl)c1-c1c2cc(I)c(=O)c(I)c-2oc2c(I)c([O-])c(I)cc12.[Na+].[Na+] [Rose Bengal],reduction in viability,[1],10.8%
same,difference in tumour volume relative to untreated control animals,[2],no significant difference
